IC50 data for three compounds are collected here from ChEMBL document CHEMBL1148201, “Penasulfate A, a new alpha-glucosidase inhibitor from a marine sponge Penares sp” (J Nat Prod, 2004).

Assay [1] can be described thus: Inhibition of yeast alpha-glucosidase G7256. More on the design: species or system Saccharomyces cerevisiae.
Assay [2] can be described thus: Inhibition of Saccharomyces cerevisiae recombinant alpha-glucosidase G0660.

For `CCCC[C@H]1CCCCCCCCC[C@H](OS(=O)(=O)[O-])[C@H](OS(=O)(=O)[O-])[C@@H](OS(=O)(=O)[O-])CCCCCCCCCCCCC(=O)N2CCC[C@H]2C(=O)O1.[Na+].[Na+].[Na+]` [PENAROLIDE SULFATE A1], the IC50 in assay [1] stood at 1.2 µg/mL.
On the same count and under the same terms, next, `CCC[C@H]1CCCCCCCCC[C@H](OS(=O)(=O)[O-])[C@H](OS(=O)(=O)[O-])[C@@H](OS(=O)(=O)[O-])CCCCCCCCCCCCCC(=O)N2CCC[C@H]2C(=O)O1.[Na+].[Na+].[Na+]` [PENAROLIDE SULFATE A2]: 1.5 µg/mL.
As for `CCCCCC[C@H](C)CCCCCC[C@H](OS(=O)(=O)[O-])[C@@H](CCCCCCCCCCCCC(=O)N1CCCC[C@@H]1C(=O)OC)OS(=O)(=O)[O-].[Na+].[Na+]` [PENASULFATE A], the IC50 in assay [2] amounted to 3.5 µg/mL.
